The source of these data is ChEMBL document CHEMBL1148128, “Clathriol, a novel polyoxygenated 14beta steroid isolated from the New Zealand marine sponge Clathria lissosclera” (J Nat Prod, 2002).

Experiment [1] in a line: Antiinflammatory in rat peritoneal mast cell assessed as inhibition of histamine release at 30 uM. It is filed as functional. Details: scale not given: the % may be the effect or the level left.
Experiment [2] deals with PBMC. Kind of experiment: Inhibition of PMA or fMLP-induced human PBMC activation assessed as superoxide production at 30 uM. Format: functional. The arrangement: scale not given: the % may be the effect or the level left.
Experiment [3] can be described thus: Antiinflammatory in rat peritoneal mast cell assessed as inhibition of histamine release. Format: functional, cell-based.

On to `CC(C)C(CCC(C)[C@H]1CC(=O)[C@H]2[C@@H]3[C@@H](O)[C@H](O)[C@H]4C[C@@H](O)CC[C@]4(C)[C@H]3CC[C@]12C)C(C)O` (stereo partly drawn), for which the Activity is recorded as 72% in experiment [1] and 76% in experiment [2].

Take `CC(C)[C@@H]1CC(O)O[C@H](C(C)[C@H]2CC(=O)[C@H]3[C@@H]4[C@@H](O)[C@H](O)[C@H]5[C@@H](O)[C@H](O)CC[C@]5(C)[C@H]4CC[C@]23C)C1` (stereo partly drawn): the 50% inhibitory concentration (IC50) (in general, the midpoint of a concentration-inhibition curve) in experiment [3] amounted to 0.8 µM.
